# Patent US20140377216A1, “ANTICANCER FUSION PROTEIN” (ADAMED SP. Z.O.O., priority 2011, published 2014)
# Where “and” joins values, the source holds several entries; their conditions need not be identical. Equal entries are not always repeated.
# Experiments:
# human liver cancer HepG2 = assay: Liver cancer model, Experiment A: HepG2 xenograft; assay type: in vivo, Crl:SHO-PrkdcscidHrhr mice; settings: 20 mg/kg i.p.
# Description: (§1) Tumor size was measured using electronic calliper, tumor volume was calculated using the formula: (a^2×b)/2, where a=shorter diagonal of the tumor (mm) and b=longer diagonal of the tumor (mm). Inhibition of tumor growth was calculated using the formula:
# (§2) TGI[%](Tumor growth inhibition)=(WT/WC)×100−100%
# (§3) wherein WT is the average tumor volume in the treatment group, and WC is the average tumor volume in the control group.
# On day 0 Crl:SHO-Prkdc^scidHr^hr mice were grafted subcutaneously (s.c.) in the right flank region with 7×10^6 of HepG2 cells suspended in 0.1 ml of the 3:1 mixture HBSS buffer:Matrigel using syringe with a 0.5×25 mm needle (Bogmark). When tumors reached the size of 64-529 mm^3 (day 25), mice were randomized to obtain the average size of tumors in the group of −230 mm^3 and assigned to treatment groups. The treatment groups were administered with the preparations of fusion protein of the invention of Ex. 16^b (80 mg/kg) and rhTRAIL114-281 (50 mg/kg) as a comparison and reference compound 5-FU (5-Fluorouracil, Sigma-Aldrich) (20 mg/kg). The preparations were administered intravenously (i.v.) six times every second day, 5-FU was applied intraperitoneally (i.p.). The control group received formulation buffer.
# When the therapeutic group reached the average tumor size of ˜1000 mm^3, mice were sacrificed by cervical dislocation.
# [1] = system: human liver cancer PLC/PRF/5; assay: Liver cancer model, Experiment B: PLC/PRF/5 xenograft; assay type: in vivo, Crl:SHO-PrkdcscidHrhr mice; settings: 30 mg/kg i.p., schedule (q1dx5)×2, 43th day
# Description: as §1, §2, §3
# On day 0 Crl:SHO-Prkdc^scidHr^hr mice were grafted subcutaneously (s.c.) in the right flank region with 7×10^6 of PLC/PRF/5 cells suspended in 0.1 ml of the 3:1 mixture HBSS buffer:Matrigel using syringe with a 0.5×25 mm needle (Bogmark). When tumors reached the size of 72-536 mm^3 (day 29), mice were randomized to obtain the average size of tumors in the group of ˜205 mm^3 and assigned to treatment groups. The treatment groups were administered with the preparations of fusion protein of the invention of Ex. 16^b (50 mg/kg) and rhTRAIL114-281 (50 mg/kg) as a comparison and reference compound 5-FU (5-Fluorouracil, Sigma-Aldrich) (30 mg/kg). The preparations were administered intravenously (i.v.) six times every second day, except 5-FU, which was applied intraperitoneally (i.p.) in the schedule (q1dx5)×2. The control group received formulation buffer.
# When an experimental group reached the average tumor size of ˜1000 mm^3, mice were sacrificed by cervical dislocation.
# [2] = system: pancreatic carcinoma MIA PaCa-2; assay: Pancreas cancer model, Experiment B: MIA PaCa-2 xenograft; assay type: in vivo, Crl:SHO-PrkdcscidHrhr mice; settings: 50 mg/kg i.p. six times every second day, 61th day
# Description: as §1, §2, §3
# On day 0 Crl:SHO-Prkdc^scidHr^hr mice were grafted subcutaneously (s.c.) in the right flank region with 5×10^6 of MIA PaCa-2 cells suspended in 0.1 ml of 3:1 mixture HBSS buffer:Matrigel using syringe with a 0.5×25 mm needle (Bogmark). When tumors reached the size of 60-398 mm^3 (day 20), mice were randomized to obtain the average size of tumors in the group of ˜170 mm^3 and assigned to treatment groups. The treatment groups were administered with the preparations of fusion protein of the invention of Ex. 16^b (50 mg/kg) and rhTRAIL114-281 (50 mg/kg) as a comparison and reference compound gemcytabine (Gemzar, Eli Lilly) (50 mg/kg). The preparations were administered intravenously (i.v.) six times every second day, gemcytabine was applied intraperitoneally (i.p.) in the same schedule. The control group received formulation buffer.
# When a therapeutic group reached the average tumor size of ˜1000 mm^3, mice were sacrificed by the cervical dislocation.
# UM-UC-3 = assay: MTT cytotoxicity test on UM-UC-3; assay type: cell-based, human; settings: continuous incubation over 72 h
# MDA-MB-435S = assay: MTT cytotoxicity test on MDA-MB-435S; assay type: cell-based, human; settings: continuous incubation over 72 h
# NCI-H460 = assay: MTT cytotoxicity test on NCI-H460; assay type: cell-based, human; settings: continuous incubation over 72 h
# SK-OV-3 = assay: MTT cytotoxicity test on SK-OV-3; assay type: cell-based, human; settings: continuous incubation over 72 h
# Panc03.27 = assay: MTT cytotoxicity test on Panc03.27; assay type: cell-based, human; settings: continuous incubation over 72 h
# 293 = assay: MTT cytotoxicity test on 293; assay type: cell-based, human; settings: continuous incubation over 72 h
# BxPC3 = assay: MTT cytotoxicity test on BxPC3; assay type: cell-based, human; settings: continuous incubation over 72 h
# MDA-MB-231 = assay: MTT cytotoxicity test on MDA-MB-231; assay type: cell-based, human; settings: continuous incubation over 72 h
# LNCaP = assay: MTT cytotoxicity test on LNCaP; assay type: cell-based, human; settings: continuous incubation over 72 h
# HT-1080 = assay: MTT cytotoxicity test on HT-1080; assay type: cell-based, human; settings: continuous incubation over 72 h
# PANC-1 = assay: MTT cytotoxicity test on PANC-1; assay type: cell-based, human; settings: continuous incubation over 72 h
# OV-CAR-3 = assay: MTT cytotoxicity test on OV-CAR-3; assay type: cell-based, human; settings: continuous incubation over 72 h
# SW 620 = assay: MTT cytotoxicity test on SW 620; assay type: cell-based, human; settings: continuous incubation over 72 h
# HepG2 = assay: MTT cytotoxicity test on HepG2; assay type: cell-based, human; settings: continuous incubation over 72 h
# Caki-1 = assay: MTT cytotoxicity test on Caki-1; assay type: cell-based, human; settings: continuous incubation over 72 h
# MCF-7 = assay: MTT cytotoxicity test on MCF-7; assay type: cell-based, human; settings: continuous incubation over 72 h
# JURKAT A3 = assay: Cytotoxicity test on JURKAT A3 (nonadherent cells); assay type: cell-based, human; settings: continuous incubation over 72 h, test MTT
# From the text: (§4) MTT assay is a colorimetric assay used to measure proliferation, viability and cytotoxicity of cells. It consists in decomposition of a yellow tetrazolium salt MTT (4,5-dimethyl-2-thiazolyl)-2,5-diphenyltetrazolium bromide) to the water-insoluble purple dye formazan by mitochondrial enzyme succinate-tetrazolium reductase 1. MTT reduction occurs only in living cells. Data analysis consists in determining IC50 concentration of the protein (in ng/ml), at which the 50% reduction in the number of cells occurs in the population treated compared to control cells. Results were analyzed using GraphPad Prism 5.0 software. The test was performed according to the literature descriptions (Celis, J E, (1998). Cell Biology, a Laboratory Handbook, second edition, Academic Press, San Diego; Yang, Y., Koh, L W, Tsai, J H., (2004); Involvement of viral and chemical factors with oral cancer in Taiwan, Jpn J Clin Oncol, 34 (4), 176-183).
# Cell culture medium was diluted to a defined density (10^4-10^5 cells per 100 μl). […] After stirring, the absorbance was measured at 570 nm (reference filter 690 nm).
# EZ4U (Biomedica) test was used for testing cytotoxic activity of the proteins in nonadherent cell lines. […] On this basis IC50 values were determined (as an average of two independent experiments) using the GraphPad Prism 5 software. […]
# MCF10A = assay: MTT cytotoxicity test on MCF10A; assay type: cell-based; settings: continuous incubation over 72 h
# COLO 205 = assay: MTT cytotoxicity test on COLO 205; assay type: cell-based, human; settings: continuous incubation over 72 h
# MES-SA/Mx2 = assay: MTT cytotoxicity test on MES-SA/Mx2; assay type: cell-based, human; settings: continuous incubation over 72 h
# SK-HEP-1 = assay: MTT cytotoxicity test on SK-HEP-1; assay type: cell-based, human; settings: continuous incubation over 72 h
# SK-MES-1 = assay: MTT cytotoxicity test on SK-MES-1; assay type: cell-based, human; settings: continuous incubation over 72 h
# HCT116 = assay: MTT cytotoxicity test on HCT116; assay type: cell-based, human; settings: continuous incubation over 72 h
# HT 144 = assay: MTT cytotoxicity test on HT 144; assay type: cell-based, human; settings: continuous incubation over 72 h
# HUV-EC-C = assay: MTT cytotoxicity test on HUV-EC-C (healthy control cells); assay type: cell-based, human; settings: continuous incubation over 72 h
# From the text: as §4
# Cell culture medium was diluted to a defined density (10^4-10^5 cells per 100 μl). Then 100 μl of appropriately diluted cell suspension was applied to a 96-well plate in triplicates. […] After stirring, the absorbance was measured at 570 nm (reference filter 690 nm). […]
# MES-SA/Dx5 = assay: MTT cytotoxicity test on MES-SA/Dx5; assay type: cell-based, human; settings: continuous incubation over 72 h
# A549 = assay: MTT cytotoxicity test on A549; assay type: cell-based, human; settings: continuous incubation over 72 h
# PLC/PRF/5 = assay: MTT cytotoxicity test on PLC/PRF/5; assay type: cell-based, human; settings: continuous incubation over 72 h
# A498 = assay: MTT cytotoxicity test on A498; assay type: cell-based, human; settings: continuous incubation over 72 h
# MES-SA = assay: MTT cytotoxicity test on MES-SA; assay type: cell-based, human; settings: continuous incubation over 72 h
molecule,measurement,setting,value
"O=c1[nH]cc(F)c(=O)[nH]1 [5-FU, 5-Fluorouracil]",efficacy against HepG2 tumors,human liver cancer HepG2,didn't show any efficacy
same,TGI (tumor growth inhibition) relative to the control,[1],32.2%
Nc1ccn([C@@H]2O[C@H](CO)[C@@H](O)C2(F)F)c(=O)n1 [gemcytabine],TGI (tumor growth inhibition) relative to the control,[2],42.6%
rhTRAIL95-281: TRAIL comparator protein as labelled in cytotoxicity Tables 4-4d (hTRAIL fragment 95-281),IC50,UM-UC-3,2.242 µg/mL
same,IC50,MDA-MB-435S,>2 µg/mL
same,IC50,NCI-H460,5.889 µg/mL
same,IC50,NCI-H460; listed as TRAIL 95-281,0.438 µg/mL
same,IC50,SK-OV-3,>2 µg/mL
same,IC50,Panc03.27,0.315 µg/mL
same,IC50,293,>10 µg/mL
same,IC50,BxPC3,0.06471 µg/mL and 0.0606 µg/mL
same,IC50,MDA-MB-231,>2 µg/mL
same,IC50,LNCaP,2.052 µg/mL
same,IC50,HT-1080,>2 µg/mL
same,IC50,PANC-1,>10 µg/mL
same,IC50,PANC-1; listed as TRAIL 95-281,>2 µg/mL
same,IC50,OV-CAR-3; listed as TRAIL 95-281,0.963 µg/mL
same,IC50,OV-CAR-3; listed as rhTRAIL 95-281,0.963 µg/mL
same,IC50,SW 620,>2 µg/mL
same,IC50,HepG2; listed as TRAIL 95-281,>2 µg/mL
same,IC50,HepG2; listed as rhTRAIL 95-281,>10 µg/mL
same,IC50,Caki-1,0.01342 µg/mL
same,IC50,MCF-7,>2 µg/mL
same,IC50,JURKAT A3,>10 µg/mL
same,IC50,MCF10A,>10 µg/mL
same,IC50,MCF10A; listed as TRAIL 95-281,>2 µg/mL
same,IC50,COLO 205,0.05902 µg/mL
same,IC50,MES-SA/Mx2,0.03895 µg/mL
same,IC50,SK-HEP-1,>2 µg/mL
same,IC50,SK-MES-1,0.03935 µg/mL
same,IC50,SK-MES-1; listed as TRAIL 95-281,0.1007 µg/mL
same,IC50,HCT116,7.557 µg/mL
same,IC50,HCT116; listed as TRAIL 95-281,>2 µg/mL
same,IC50,HT 144; listed as TRAIL 95-281,1.134 µg/mL
same,IC50,HT 144; listed as rhTRAIL 95-281,1.73 µg/mL
same,IC50,HUV-EC-C,>2 µg/mL
same,IC50,MES-SA/Dx5,0.02915 µg/mL
same,IC50,MES-SA/Dx5; listed as TRAIL 95-281,0.02759 µg/mL
same,IC50,A549,>10 µg/mL
same,IC50,A549; listed as TRAIL 95-281,>2 µg/mL
same,IC50,PLC/PRF/5,>9 µg/mL
same,IC50,PLC/PRF/5; listed as TRAIL 95-281,>2 µg/mL
same,IC50,A498,1.611 µg/mL
same,IC50,MES-SA,>10 µg/mL
same,IC50,MES-SA; listed as TRAIL 95-281,>2 µg/mL
